Laboratory results from US9173876B2, “Preparation and therapeutic applications of (2S,3R)-N-2-((3-pyridinyl)methyl)-1-azabicyclo[2.2.2]oct-3-yl)-3,5-difluorobenzamide” (Targacept, Inc., priority 2009, dated 2015).

Experiments:
[1] = system: STZ rat model of diabetic neuropathy; assay: Streptozotocin (STZ)-induced diabetic neuropathy, Von Frey allodynia; type: in vivo; conditions: 150 mg/kg i.p.
Experimental: Diabetes was induced by a 0.5 ml injection of streptozotocin (60 mg/kg) dissolved in citrate buffer (pH=6) into the tail vein of each rat. The development of diabetes was confirmed by measuring the blood glucose levels (BGL) of all animals on study day 3 (BGL>300 mg/dL). […] These animals were tested again for their BGL at study day 23.
(2S,3R)—N-2-((3-pyridinyl)methyl)-1-azabicyclo[2.2.2]oct-3-yl)-3,5-difluorobenzamide (0.1, 1 or 10 mg/kg p.o.) was administered as a solution of the hydrochloride salt in water once daily starting on study day 14 or study day 16 and continuing through study day 21 or 23, respectively. The control article gabapentin (in 0.9% saline, 150 mg/kg i.p.) was only administered on allodynia test days. Test item, vehicle or control article administration was based on evaluation of allodynia on study day 14. If allodynia was not present on study day 14, the animal was evaluated again at study day 16. Pain response was measured either on study days 14 and 21 or 16 and 23, 30 minutes after Test Item administration.
For the allodynia assessments, Von Frey filaments were used according to the methods of Chaplan and colleagues (1994). Briefly, the rats were placed in an enclosure and positioned on a metal mesh surface, but allowed to move freely. The rats' cabins were covered with red cellophane to diminish environmental distributions. The test began after cessation of exploratory behavior.
When the tip of a Von Frey fiber of given length and diameter was pressed against the skin at right angles, the force of application increases as long as the researcher continued to advance the probe until the fiber bent. After the fiber bent, the probe was advanced, causing the fiber to bend more, but without additional force being applied. The animal would indicate sensation by pulling back its paw. In the absence of a paw withdrawal response to the initially selected filament, a stronger stimulus was presented: in the event of paw withdrawal, the next weaker stimulus was chosen. In this fashion, the resulting pattern of positive and negative responses was used to determine the paw withdrawal threshold.
The set of Von Frey monofilaments provide an approximate logarithmic scale of actual force and a linear scale of perceived intensity. Below is a table showing the force (g) and its corresponding size of monofilaments.
All normally distributed data are presented as means±SEM, as well as the animals' individual values followed by a student T-test (Software: Microsoft® Excel). A p value<0.05 is considered to represent a significant difference. Due to the non-normal distribution of the allodynia data, descriptions of those data are provided as both mean (+SEM) and median values in order to represent their imprecise nature and skewed distribution.

[2] = cited from earlier work
[3] = Aqueous solubility (salt screen); conditions: target 10 mg/ml at 25° C. unbuffered
CD-1 mice = assay: Formalin test; type: in vivo, mouse; conditions: positive control, 5 mg/kg s.c.
Experimental: Subjects (adult male CD-1 mice (Charles River, Raleigh, N.C.) weighing approximately 20-25 grams) were removed from their home cage and weighed, then placed in a clear Plexiglas™ observation box for an acclimation period of 20-30 minutes. Mice were then removed from the observation chambers and (2S,3R)—N-2-((3-pyridinyl)methyl)-1-azabicyclo[2.2.2]oct-3-yl)-3,5-difluorobenzamide (as the hydrochloride salt in 0.9% saline) (1, 3 or 10 mg/kg s.c. (calculated with respect to the free base)), morphine (5 mg/kg; s.c.) or 0.9% saline vehicle was administered subcutaneously in a volume of 1 mL/kg. Mice were then returned to the chamber for the predetermined pretreatment time of 30 minutes for (2S,3R)—N-2-((3-pyridinyl)methyl)-1-azabicyclo[2.2.2]oct-3-yl)-3,5-difluorobenzamide and morphine.
The subject's assigned paw was grasped gently and formalin solution was injected into the paw intra-dermally in the middle on the dorsal side. Once injected, the subject was immediately returned to its observation chamber and a timer was started to mark the beginning of Phase I. Each subject was videotaped for the entire 40-minute session. […] The time spent licking during that 1 min interval was recorded, and the presence or absence of paw favoring was noted.
For data analyses, phase I of the test was defined as 0 to 5 minutes after formalin injection, and phase II was defined as 20 to 40 minutes after formalin injection. The time spent licking during the 1 minute intervals during those time frames was recorded and graphed as mean±S.E.M. For comparisons across treatment groups, 1-way analyses of variance (ANOVAs) were performed for each phase of the session with treatment as the […] variable. Post-hoc analyses were performed when appropriate to determine specific group differences.

Sprague-Dawley rats = assay: Complete Freund's adjuvant (CFA)-induced thermal hyperalgesia; type: in vivo, rat; conditions: reference standard, 3 mg/kg s.c., 1 hour after dosing
From the text: Briefly, adult male Sprague-Dawley rats (BioLasco, Taiwan) weighing 180±20 g on receipt were randomly assigned to treatment groups of n=8 per group. […] A subject was placed within a plastic box atop an elevated glass floor and a light beam located under the glass floor was directed at the plantar surface of the right hind paw. The time required for the animal to withdraw the paw from the thermal stimulus was automatically recorded. The intensity of the light was adjusted to evoke an average group baseline latency from 12-14 seconds (pre-CFA) and a cut-off latency of 20 seconds was imposed. The latency for paw withdrawal was obtained for each rat and defined as the heat pain threshold.
Test substance, morphine and vehicle were administered by subcutaneous (s.c.) injection at time 0. The post-treatment level of thermal hyperalgesia was then measured at 60 minutes post-treatment. One-way ANOVA followed by Dunnett's test was applied for comparison between test substance treated groups and vehicle control group. Activity was considered significant at the P<0.05 level.

db/db mouse = assay: Murine model of type 2 diabetes mellitus (db/db mouse); type: in vivo; conditions: MLA 3 mg/kg daily by gavage with 1.0 mg/kg test article
From the text: The db/db mouse, a well established model of type 2 diabetes mellitus, is a leptin-deficient mutant that expresses an obese phenotype and also commonly expresses metabolic symptoms including hyperglycemia, hyperlipidemia and hyperinsulinemia (Halaas et al., 1995 and Lee et al., 1996). This experimental animal model of diabetes was employed in a study designed to determine the effects of (2S,3R)—N-2-((3-pyridinyl)methyl)-1-azabicyclo[2.2.2]oct-3-yl)-3,5-difluorobenzamide on body mass and several additional metabolic parameters.
In this study, (2S,3R)—N-2-((3-pyridinyl)methyl)-1-azabicyclo[2.2.2]oct-3-yl)-3,5-difluorobenzamide was repeatedly administered orally (via gavage) at 1.0 mg/kg once daily starting from the age of approximately 3 weeks and continuing throughout the 7-week study. Nondiabetic heterozygote littermate mice (db/+; designated “Db”) were used as controls. Body weight and food intake were determined twice weekly. The α7 antagonist methyllycaconitine (MLA) was also given concurrently via gavage at 3 mg/kg daily to selected cohorts of db/db (designated “db”) or db/+mice. At the end of the 7-week dosing regimen, total growth rates (overall body weight gain) and average daily food intake were calculated. In addition, glucose levels were assessed in mice fasted overnight. Furthermore, blood sample analytes from mice fasted overnight were collected for measurements of tumor necrosis factor-a (TNF-α), triglycerides and glycosylated hemoglobin (HbA1c). All data are expressed as mean±SEM. For each parameter investigated, differences among all groups were compared by one-way ANOVA with post-hoc Neuman-Keuls multiple comparison test.

NCC1(CC(=O)O)CCCCC1 [gabapentin, reference compound]
Paw withdrawal force post treatment, median ([1]; study days 14/16): 60 g
Paw withdrawal force post treatment, mean±SEM ([1]; study days 14/16, pre treatment 22.77±3.77 g, vehicle 26.61±4.41 g): 45.62 ± 4.24 g
Paw withdrawal force post treatment, median ([1]; study days 21/23): 60 g
Paw withdrawal force post treatment, mean±SEM ([1]; study days 21/23, pre treatment 28.23±4.91 g, vehicle 20.46±3.31 g): 50.88 ± 4.12 g
Tactile allodynia (Von Frey) ([1]; positive control, all treatment days, vs pretreatment and vehicle, p<0.01): reversed the tactile allodynia significantly

O=C(O)/C=C/C(=O)O [Fumaric acid]
LogP [2]: −0.01

Cc1ccc(S(=O)(=O)O)cc1 [p-Toluene sulfonic acid]
LogP [2]: 0.93

CCC(=O)O [Propionic acid]
LogP [2]: 0.25

O=C(O)CNC(=O)c1ccccc1 [Hippuric acid]
LogP [2]: 0.31

O=C(N[C@@H]1C2CCN(CC2)[C@H]1Cc1cccnc1)c1cc(F)cc(F)c1.O=C(O)/C=C/C(=O)O [Fumarate mono salt]
Aqueous Solubility [3]: >10000 µg/mL

Cl.O=C(N[C@@H]1C2CCN(CC2)[C@H]1Cc1cccnc1)c1cc(F)cc(F)c1 [Hydrochloride mono salts]
Aqueous Solubility [3]: >10000 µg/mL

CN1CC[C@]23c4c5ccc(O)c4O[C@H]2[C@@H](O)C=C[C@H]3[C@H]1C5 [morphine, reference compound]
Time spent licking, phase I and phase II (CD-1 mice): efficacious in both phases of the test
Analgesic effect on CFA-induced thermal hyperalgesia (Sprague-Dawley rats): significant analgesic activity

O=C(O)/C=C\C(=O)O [Maleic acid]
LogP [2]: −0.01

O=S(=O)(O)c1ccccc1 [Benzene sulfonic acid]
LogP [2]: 0.47

O=C(N[C@@H]1C2CCN(CC2)[C@H]1Cc1cccnc1)c1cc(F)cc(F)c1.O=P(O)(O)O [Phosphate mono salts]
Aqueous Solubility [3]: >10000 µg/mL

CCN1C[C@]2(COC(=O)c3ccccc3N3C(=O)C[C@H](C)C3=O)CC[C@H](OC)[C@@]34[C@@H]5C[C@H]6[C@H](OC)[C@@H]5[C@](O)(C[C@@H]6OC)[C@@](O)([C@@H](OC)[C@H]23)[C@@H]14 [MLA, methyllycaconitine, reference compound]
Weight gain on co-administration of MLA with the difluorobenzamide (db/db mouse; FIG. 15): failed to show the reduced weight gain
Daily average food consumption on co-administration of MLA with the difluorobenzamide (db/db mouse; FIG. 16): failed to show the reduced daily average food consumption
Reversal of the fasting plasma glucose effect by co-administration of MLA (db/db mouse; FIG. 17): not reversed
Effect of MLA co-administration on the reduction in glycosylated HbA1c (db/db mouse; FIG. 18): attenuated
Effect of MLA co-administration on the TNF alpha reduction (db/db mouse; FIG. 19): inhibited
Effect of MLA co-administration on the reduction in triglycerides (db/db mouse; FIG. 20): not attenuated

N[C@@H](CC(=O)O)C(=O)O [L-Aspartic acid]
LogP [2]: −0.67

O=C(O)[C@H](O)[C@@H](O)[C@H](O)[C@H](O)CO [D-Gluconic acid]
LogP [2]: −3.18

O=C(O)c1ccc2ccccc2c1O [1-Hydroxy-2-Naphthoic acid]
LogP [2]: 3.29
